Assay results from US20200360349A1, “ADMINISTRATION OF MONOBACTAM FOR THE TREATMENT OF URINARY TRACT INFECTION” (Novartis AG, priority 2017, published 2020).

Assays:
[1] = Safety and tolerability of single doses of LYS228; assay type: in vivo, human; details: following single doses up to 6000 mg
From the text: and including any ionic species thereof is a compound with antibacterial activity (See PCT Application No. PCT/US2015/022011, which is incorporated herein by reference). […] LYS228 kills bacteria by inhibiting cell wall synthesis through covalent modification of the active site serine of penicillin binding protein 3 (PBP3). Aztreonam is the only monobactam approved for clinical use (Tunkel and Scheld Infect Control Hosp Epidemiol p. 486-94, 1990). MBL-expressing Enterobacteriaceae can inactivate all classes of (3-lactam drugs, except monocyclic (3-lactams like the monobactams. MBLs are frequently co-expressed with SBLs. The prevalence of strains expressing the New Delhi metal-β-lactamase-1 (NDM-1) is as high as 12% in clinical isolates from patients with invasive infections in India (Biedenbach et al Antimicrob. Agents Chemother. p. 826-30, 2015, Rahman et al India. Int. J. Antimicrob. Agents p. 30-7, 2014); infections caused by strains expressing NDM-1 and other MBLs have been detected globally, including in Europe, the United States, China, and Japan (Kazmierczak et al Antimicrob. Agents Chemother. p. 1067-78, 2016). […]

[2] = test system: Gram-negative bacteria, including strains that show resistance to other monobactams; details: cited from earlier work

Nc1nc(/C(=N/OC2(C(=O)O)CC2)C(=O)N[C@@H]2C(=O)N(S(=O)(=O)O)[C@@H]2CN2CCOC2=O)cs1 [LYS228, 1-(((Z)-(1-(2-aminothiazol-4-yl)-2-oxo-2-(((3S,4R)-2-oxo-4-((2-oxooxazolidin-3-yl)methyl)-1-sulfoazetidin-3-yl)amino)ethylidene)amino)oxy)cyclopropanecarboxylic acid]
safety and tolerability [1]: safe and well-tolerated | activity against Gram-negative bacteria [2]: strong activity
